Assay results taken from patent US11884647B2, “Compounds and methods for targeting pathogenic blood vessels” (THE REGENTS OF THE UNIVERSITY OF CALIFORNIA, priority 2019, dated 2024).

Legend:
[1] = system: tumor endothelial cells (LL/2 lung cancer tumor); assay: Lung LL2 ex vivo model of tumor angiogenesis; assay type: cell-based, mouse; details: for cytotoxicity at 40 µM / cytotoxicity at 20 µM: Mus musculus, Endothelial cell, 48 h, read-out: Cell death
Outline: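 Read-out is live/dead fluorescence imaging (fluorescein diacetate green, propidium iodide red, 10 min at 37° C) at 2×, taken e.g. 48 h after drug addition. Fragments of mouse LL2 tumor are cultured in Matrigel with endothelial growth medium, usually 4 days, until new endothelial cells grow out, then treated.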

[2] = system: tumor endothelial cells (CT26.CL25 colon cancer tumor); assay: Colon CT26 ex vivo model of tumor angiogenesis; assay type: cell-based; details: Mus musculus, CT26, 48 h, read-out: Cell death
Outline: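 Explant pieces of CT26 tumor (about 0.075 mm^3) were embedded in Matrigel and grown in endothelial growth medium at 37 °C for about 7 days until endothelial outgrowth appeared, then treated. Cell death was read about 48 h after drug addition by fluorescein diacetate (live) and propidium iodide (dead) staining with red/green imaging.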

Structure (SMILES)	cytotoxicity at 40 µM [1] [%]	cytotoxicity at 40 µM [2] [%]	cytotoxicity at 20 µM [1] [%]	cytotoxicity at 10 µM [2] [%]	further results
CCc1ccc(S(=O)(=O)c2cnc3ccc([N+](=O)[O-])cc3c2N(CC)CC)cc1 [compound 78, N,N-diethyl-3-((4-ethylphenyl)sulfonyl)-6-nitroquinolin-4-amine]	40	0			
CCc1ccc(S(=O)(=O)c2cnc3ccc(OC(F)(F)F)cc3c2-n2ccnn2)cc1 [compound 110, 3-((4-ethylphenyl)sulfonyl)-4-(1H-1,2,3-triazol-1-yl)-6-(trifluoromethoxy)quinoline]		10	95		
CCc1ccc(S(=O)(=O)c2cnc3ccc([N+](=O)[O-])cc3c2N2CCC(N3CCCCC3)CC2)cc1 [compound 77, 4-([1,4′-bipiperidin]-1′-yl)-3-((4-ethylphenyl)sulfonyl)-6-nitroquinoline]	80	40			
CCCCOc1ccc(S(=O)(=O)c2cnc3ccc([S+](C)[O-])cc3c2N2CCC(N3CCCN(C)CC3)CC2)cc1 (stereo not drawn) [compound 241, 3-((4-butoxyphenyl)sulfonyl)-4-(4-(4-methyl-1,4-diazepan-1-yl)piperidin-1-yl)-6-(methylsulfinyl)quinoline]	40			0	
CCCCOc1ccc(S(=O)(=O)c2cnc3ccc([S+](C)[O-])cc3c2N2CCC(N3CCC(O)(c4ccccc4)CC3)CC2)cc1 (stereo not drawn) [compound 238, 1′-(3-((4-butoxyphenyl)sulfonyl)-6-(methylsulfinyl)quinolin-4-yl)-4-phenyl-[1,4′-bipiperidin]-4-ol]	100			10	
CCOC(=O)c1ccc2ncc(S(=O)(=O)c3ccc(CC)cc3)c(-n3cncn3)c2c1 [compound 80, ethyl 3-((4-ethylphenyl)sulfonyl)-4-(1H-1,2,4-triazol-1-yl)quinoline-6-carboxylate]			100	100	
CCCCOc1ccc(S(=O)(=O)c2cnc3ccc(C(=O)OCC)cc3c2N2CCC(N3CCOCC3)CC2)cc1 [compound 212, ethyl 3-((4-butoxyphenyl)sulfonyl)-4-(4-morpholinopiperidin-1-yl)quinoline-6-carboxylate]	50	10			
CCCCCCCOc1ccc(S(=O)(=O)c2cnc3ccc([S+](C)[O-])cc3c2N2CCCN(CCN3CCCCC3)CC2)cc1 (stereo not drawn) [compound 255, 3-((4-(heptyloxy)phenyl)sulfonyl)-6-(methylsulfinyl)-4-(4-(2-(piperidin-1-yl)ethyl)-1,4-diazepan-1-yl)quinoline]			10	0	
CCc1ccc(S(=O)(=O)c2cnc3ccc(OC(F)(F)F)cc3c2N2CCC(N3CCC(O)CC3)CC2)cc1 [compound 102, 1′-(3-((4-ethylphenyl)sulfonyl)-6-(trifluoromethoxy)quinolin-4-yl)-[1,4′-bipiperidin]-4-ol]		5			Cell death ([1]; Lung LL2 ex vivo, Conc. 20 μm, drug treatment two days): 20%
COc1ccc(S(=O)(=O)c2cnc3ccc(OC(F)(F)F)cc3c2N2CCCN(C)CC2)cc1OC [compound 57, 3-((3,4-dimethoxyphenyl)sulfonyl)-4-(4-methyl-1,4-diazepan-1-yl)-6-(trifluoromethoxy)quinoline]	40	60			
CCc1ccc(S(=O)(=O)c2cnc3ccc(OC(F)(F)F)cc3c2NN2CCN(C)CC2)cc1 [compound 50, 3-((4-ethylphenyl)sulfonyl)-N-(4-methylpiperazin-1-yl)-6-(trifluoromethoxy)quinolin-4-amine]	90	100			
CCCN(CCC)c1c(S(=O)(=O)c2ccc(OC)c(OC)c2)cnc2ccc(OC(F)(F)F)cc12 [compound 71, 3-((3,4-dimethoxyphenyl)sulfonyl)-N,N-dipropyl-6-(trifluoromethoxy)quinolin-4-amine]	10	0			
CCCCOc1ccc2ncc(S(=O)(=O)c3ccc(OC)c(OC)c3)c(N3CCC(N4CCCCC4)CC3)c2c1 [compound 116, 4-([1,4′-bipiperidin]-1′-yl)-6-butoxy-3-((3,4-dimethoxyphenyl)sulfonyl)quinoline]			100		cytotoxicity at 20 µM [2]: 50%
CCCCCCCOc1ccc(S(=O)(=O)c2cnc3ccc([S+](C)[O-])cc3c2N2CCC(N3CCN(CCO)CC3)CC2)cc1 (stereo not drawn) [compound 257, 2-(4-(1-(3-((4-(heptyloxy)phenyl)sulfonyl)-6-(methylsulfinyl)quinolin-4-yl)piperidin-4-yl)piperazin-1-yl)ethan-1-ol]			100	100	
CCCCOc1ccc(S(=O)(=O)c2cnc3ccc(C(=O)OCC)cc3c2N2CCCN(C)CC2)cc1 [compound 158, ethyl 3-((4-butoxyphenyl)sulfonyl)-4-(4-methyl-1,4-diazepan-1-yl)quinoline-6-carboxylate]	100	100			
CCc1ccc(S(=O)(=O)c2cnc3ccc(OC(F)(F)F)cc3c2N2CCC3(CC2)OCCO3)cc1 [compound 52, 8-(3-((4-ethylphenyl)sulfonyl)-6-(trifluoromethoxy)quinolin-4-yl)-1,4-dioxa-8-azaspiro[4.5]decane]	50	0			
CCCCOc1ccc(S(=O)(=O)c2cnc3ccc([S+](C)[O-])cc3c2N2CCCN(C)CC2)cc1 (stereo not drawn) [compound 163, 3-((4-butoxyphenyl)sulfonyl)-4-(4-methyl-1,4-diazepan-1-yl)-6-(methylsulfinyl)quinoline]	95	100			
CCCCCCCOc1ccc(S(=O)(=O)c2cnc3ccc([S+](C)[O-])cc3c2N2CCC(N3CCCN(C)CC3)CC2)cc1 (stereo not drawn) [compound 256, 3-((4-(heptyloxy)phenyl)sulfonyl)-4-(4-(4-methyl-1,4-diazepan-1-yl)piperidin-1-yl)-6-(methylsulfinyl)quinoline]			100	90	
COc1ccc(S(=O)(=O)c2cnc3ccc(OC(F)(F)F)cc3c2N2CCC(N3CCCCC3)CC2)cc1OC [compound 56, 4-([1,4′-bipiperidin]-1′-yl)-3-((3,4-dimethoxyphenyl)sulfonyl)-6-(trifluoromethoxy)quinoline]	20	30			
CCc1ccc(S(=O)(=O)c2cnc3ccc(C(=O)O)cc3c2N2CCC(O)CC2)cc1 [compound 65, 3-((4-ethylphenyl)sulfonyl)-4-(4-hydroxypiperidin-1-yl)quinoline-6-carboxylic acid]	10	0			
CCOC(=O)c1ccc2ncc(S(=O)(=O)c3ccc(CC)cc3)c(N3CCC(O)CC3)c2c1 [compound 62, ethyl 3-((4-ethylphenyl)sulfonyl)-4-(4-hydroxypiperidin-1-yl)quinoline-6-carboxylate]	30	70			
CCOC(=O)c1ccc2ncc(S(=O)(=O)c3ccc(CC)cc3)c(NN3CCN(C)CC3)c2c1 [compound 84, ethyl 3-((4-ethylphenyl)sulfonyl)-4-((4-methylpiperazin-1-yl)amino)quinoline-6-carboxylate]	100	100			
COc1ccc(S(=O)(=O)c2cnc3ccc(CC#N)cc3c2-n2cncn2)cc1 [compound 98, 2-(3-((4-methoxyphenyl)sulfonyl)-4-(1H-1,2,4-triazol-1-yl)quinolin-6-yl)acetonitrile]			10	50	
CCc1ccc(S(=O)(=O)c2cnc3ccc([N+](=O)[O-])cc3c2N2CCC(O)CC2)cc1 [compound 75, 1-(3-((4-ethylphenyl)sulfonyl)-6-nitroquinolin-4-yl)piperidin-4-ol]	80	0			
CCCCCCCOc1ccc(S(=O)(=O)c2cnc3ccc([S+](C)[O-])cc3c2N2CCC(N3CCN(C)CC3)CC2)cc1 (stereo not drawn) [compound 253, 3-((4-(heptyloxy)phenyl)sulfonyl)-4-(4-(4-methylpiperazin-1-yl)piperidin-1-yl)-6-(methylsulfinyl)quinoline]			100	80	
CCCCOc1ccc(S(=O)(=O)c2cnc3ccc([S+](C)[O-])cc3c2N2CCCN(CCN3CCCC3)CC2)cc1 (stereo not drawn) [compound 210, 3-((4-butoxyphenyl)sulfonyl)-6-(methylsulfinyl)-4-(4-(2-(pyrrolidin-1-yl)ethyl)-1,4-diazepan-1-yl)quinoline]	50	70			
COc1ccc(S(=O)(=O)c2cnc3cc(OC)c(OC)cc3c2-n2cncn2)cc1OC [compound 96, 3-((3,4-dimethoxyphenyl)sulfonyl)-6,7-dimethoxy-4-(1H-1,2,4-triazol-1-yl)quinoline]			0	0	
CCc1ccc(S(=O)(=O)c2cnc3ccc(OC)cc3c2-n2cncn2)cc1 [compound 79, 3-((4-ethylphenyl)sulfonyl)-6-methoxy-4-(1H-1,2,4-triazol-1-yl)quinoline]			20	100	
COc1ccc(S(=O)(=O)c2cnc3ccc(CC#N)cc3c2NN2CCN(C)CC2)cc1 [compound 99, 2-(3-((4-methoxyphenyl)sulfonyl)-4-((4-methylpiperazin-1-yl)amino)quinolin-6-yl)acetonitrile]	10	0			
CCOC(=O)C1CCN(c2c(S(=O)(=O)c3ccc(CC)cc3)cnc3ccc(OC(F)(F)F)cc23)CC1 [compound 47, ethyl 1-(3-((4-ethylphenyl)sulfonyl)-6-(trifluoromethoxy)quinolin-4-yl)piperidine-4-carboxylate]	50	10			
